Among the data in ChEMBL document CHEMBL1149078, “1,3,4-Oxadiazoline derivatives as novel potential inhibitors targeting chitin biosynthesis: design, synthesis and biological evaluation” (Bioorg Med Chem Lett, 2009) are inhibition and IC50 values, retold here.

One assay deals with Saccharomyces cerevisiae. The assay can be described thus: Inhibition of yeast chitin synthase at 250 uM.
A short description of assay [1]: Inhibition of yeast chitin synthase. Further details: species or system Saccharomyces cerevisiae.

As a reminder, the inhibition is the share of the control response that was lost under treatment. Higher therefore signals strong suppression. A word on the IC50: it is the point on the concentration scale where inhibition reaches its midpoint. Higher therefore signals a need for much substance.

As to `CCCCC1(CCCC)OC(c2ccccc2Cl)=NN1C(C)=O`, the inhibition in the assay on Saccharomyces cerevisiae turned out to be 91%. Besides, the IC50 in assay [1] was determined as 7.93 µM.

Regarding `CCCCC1(CCCC)OC(c2ccc(Cl)cc2)=NN1C(C)=O`, the inhibition in the assay with Saccharomyces cerevisiae is 69%.

Turning to `CCCCC1(CCCC)OC(c2ccc(Cl)cc2Cl)=NN1C(=O)NC(=O)c1ccccc1Cl`, the inhibition with Saccharomyces cerevisiae came out at 86%. For the same compound, the IC50 in assay [1] amounted to 5.6 µM.

On to `CCCCC1(CCCC)OC(c2cc(C)cc(C)c2)=NN1C(C)=O`, for which, in the assay with Saccharomyces cerevisiae, the inhibition stood at 68%.
